# Several values for one entry are separate records, joined by “and”; a condition that tells them apart may be missing. Equal entries are not always repeated. Where two headings read alike, the source gives them in different places.
# How the values were obtained:
# [1] = system: APP/PS1 transgenic mice; assay: Dendritic spine density of hippocampal neurons in brain slices of AD mice; assay type: in vivo
# Experimental: Thy1-GFP mice are commonly used in neuroscience research. The fluorescence labeling of GFP facilitates convenient observation and tracking of specific cell types, especially neurons. APP/PS1 transgenic mice (an animal model of Alzheimer's disease) were crossed with Thy1-GFP mice. The crossed mice aged 5 months were intraperitoneally injected with a compound solution at a concentration of 2.5 mg/kg for 1 month continuously. Subsequently, the crossed mice aged 6 months were subjected to behavioral test (Morris water maze MWM experiment) to evaluate learning and memory abilities (as shown in FIG. 22).
# After the water maze behavioral test, the mice were anesthetized and perfused, and then brain tissue sections were taken. The density of neuronal dendritic spines was observed under a confocal fluorescence microscope using GFP green fluorescence.
# [2] = system: primary neurons; assay: Dendritic spine density of neurons in the in vitro AD model (APPsw lentivirus); assay type: cell-based, mouse
# Experimental: The extraction and culture of primary neurons were the same as those hereinabove (toxicity experiment section). Transfection of neurons using plasmid calcium: A neuron culture medium (half medium change) was aspirated and placed in a 37°C water bath for later use, and Neurobasel A was added to a 24-well plate. 500 ng of plasmid DNA was dissolved in 12.5 µl of CaCl2 solution, and then centrifuged. 12.5 µl of HBS was added to the EP tube, and then centrifuged. The mixed solution hereinabove was added to the 24-well plate. The 24-well plate was gently shaken, and then placed back into a 37°C incubator to stand for 90 min. […] On day 6 of in vitro culture (DIV6), the original medium was semi-quantitatively collected, and the lentivirus stock solution (100 µl) was diluted with the original medium (10 ml) at a ratio of […]. […] Primary neurons were transfected with calcium-transformed GFP plasmids on day 4 of in vitro culture to enable the neurons to carry green fluorescence for observing neuronal dendrites. […] After 14 days of in vitro culture, the neurons were fixed with 4% PFA, photographed under a 100× oil immersion lens of a confocal fluorescence microscope, and the dendritic spine density per 10 µm length of the neurons was calculated by observing GFP green fluorescence.
# [3] = Drug content in brain tissue after single intraperitoneal administration; assay type: in vivo, Balb/c strain mice; conditions: mice; for concentration at 0.5 h: brain, ip
# Experimental: (§1) Research method: first, Balb/c strain mice were administered with a single intraperitoneal injection at a concentration of 2.5 mg/kg, and the content of the compound in serum was detected at 0.25, 0.5, 1, 2, 4, 6, 8 and 24 h after injection; second, brain tissues of mice at 0.5, 4 and 24 h after injection were collected to detect the compound content, so as to evaluate the blood-brain barrier penetration rate.
# [4] = Blood drug concentration in mice after single intraperitoneal administration; assay type: in vivo, Balb/c strain mice
# Experimental: Compound preparation: A compound of Formula I was commercially available, which was dissolved and diluted with a solution comprising 10% DMSO+90% (20% HP-β-CD).
# as §1
# [5] = system: 293T cell line; assay: CCK8 cell viability (toxicity) assay in 293T cell line; assay type: cell-based; conditions: 293T, 24 h, CCK8, three replicate wells
# Source text: The CCK8 cell viability assay (CCK8) was adopted. Its principle is mainly based on the reduction reaction of WST-8 (chemical name: 2-(2-methoxy-4-nitrophenyl)-3-(4-nitrophenyl)-5-(2,4-disulfophenyl)-2H-tetrazolium monosodium salt). In the presence of living cells, WST-8 can be reduced by dehydrogenases in mitochondria to generate a highly water-soluble orange-yellow formazan product. The color intensity is directly proportional to the number of living cells, wherein the quantity of living cells can be indirectly reflected by measuring the absorbance of formazan products (typically at a wavelength of 450 nm). The CCK-8 assay is widely used in cell proliferation assay, cytotoxicity assay and tumor drug sensitivity test.
# In in vitro experiments, the compound stock solution was prepared into 10 mM with DMSO and diluted with a culture medium before use. The 293T cell line was used for preliminary concentration screening of the compound, wherein concentration gradients were set as follows: 5 µmol, 10 µmol, 20 µmol, 40 µmol, 80 µmol and 160 µmol. After the cells were treated with the compound for 24 h, the CCK8 detection kit was used, wherein the cell viability was calculated based on the absorbance values detected by a microplate reader. Data processing was performed using GraphPad Prism software to plot the IC50 curve.
# [6] = IP 2.5 mg/kg, 0.5 hr, individual animals, 2.5 mg/kg
# [7] = IP 2.5 mg/kg, 24 hr, individual animals
# [8] = IP 2.5 mg/kg, 24 hr, mean of 3 animals
compound,measurement,setting,value
"CCOC(=O)c1[nH]c(C)c(CCC(=O)N2CCCC(C(=O)NCCN3CCCCCC3)C2)c1C (centres unmarked) [compound of Formula I, ETHYL4-[3-(3-{[2-(AZEPAN-1-YL)ETHYL]CARBAMOYL}PIPERIDIN-1-YL)-3-OXOPROPYL]-3, 5-DIMETHYL-1H-PYRROLE-2-CARBOXYLATE]",dendritic spine density of hippocampal neurons (normalized to the control group),"[1]; APP SW + intervention, IP 2.5 mg/kg for 1 month, brain slices, individual neurons, 2.5 mg/kg",0.7721 and 0.7284 and 0.6276 and 0.7954 and 0.8425 and 0.7853
same,dendritic spine density of hippocampal neurons,[1]; after compound intervention vs AD mice,increased
same,number of dendritic spines of neurons (normalized to the control group),"[2]; APP SW+intervention, compound 2.5 µmol for 24 h, individual neurons",0.7841 and 0.7357 and 0.6856 and 0.8651 and 0.6806 and 0.6909 and 0.6481 and 0.7086
same,dendritic spine density,"[2]; in vitro AD model (APPsw virus), after compound intervention, group comparison",increased
same,concentration at 0.5 h,"[3]; Balb/c, mouse, 2.5 mg/kg, IP 2.5 mg/kg, 0.5 hr, individual animals, read-out: Concentration (brain tissue)",16.8 ng/mL
same,concentration at 0.5 h,"[3]; Balb/c, mouse, 2.5 mg/kg, IP 2.5 mg/kg, 0.5 hr, mean of 3 animals, read-out: Concentration (brain tissue) Mean",13.8 ng/mL
same,Kp at 0.5 h,"[3]; Balb/c, mouse, IP 2.5 mg/kg, 0.5 hr, brain tissue vs blood",0.037
same,Concentration (brain tissue),[3]; [6],10.3 ng/mL and 14.4 ng/mL
same,Concentration (brain tissue),"[3]; IP 2.5 mg/kg, 4 hr, individual animals","BLOQ (BLOQ = Below LOQ, LOQ = 2.0 ng/mL)"
same,Concentration (brain tissue) Mean,"[3]; IP 2.5 mg/kg, 4 hr, mean of 3 animals","BLOQ (BLOQ = Below LOQ, LOQ = 2.0 ng/mL)"
same,Concentration (brain tissue),[3]; [7],"BLOQ (BLOQ = Below LOQ, LOQ = 2.0 ng/mL)"
same,Concentration (brain tissue) Mean,[3]; [8],"BLOQ (BLOQ = Below LOQ, LOQ = 2.0 ng/mL)"
same,blood-brain barrier penetration,[3]; brain tissue 0.5 h after single IP injection 2.5 mg/kg,capable of crossing the blood-brain barrier
same,concentration at 0.25 h,"[4]; Balb/c, mouse, serum, ip, 2.5 mg/kg, IP 2.5 mg/kg, 0.25 hr, individual animals, read-out: Concentration (blood)",369 ng/mL
same,concentration at 0.25 h,"[4]; Balb/c, mouse, serum, ip, 2.5 mg/kg, IP 2.5 mg/kg, 0.25 hr, mean of 3 animals, read-out: Concentration (blood) Mean",423 ng/mL
same,concentration at 0.5 h,"[4]; Balb/c, mouse, serum, ip, 2.5 mg/kg, IP 2.5 mg/kg, 0.5 hr, individual animals, read-out: Concentration (blood)",364 ng/mL
same,concentration at 0.5 h,"[4]; Balb/c, mouse, serum, ip, 2.5 mg/kg, IP 2.5 mg/kg, 0.5 hr, mean of 3 animals, read-out: Concentration (blood) Mean",374 ng/mL
same,concentration at 1 h,"[4]; Balb/c, mouse, serum, ip, 2.5 mg/kg, IP 2.5 mg/kg, 1 hr, mean of 3 animals",145 ng/mL
same,concentration at 2 h,"[4]; Balb/c, mouse, serum, ip, 2.5 mg/kg, IP 2.5 mg/kg, 2 hr, mean of 3 animals",36.1 ng/mL
same,concentration at 4 h,"[4]; Balb/c, mouse, serum, ip, 2.5 mg/kg, IP 2.5 mg/kg, 4 hr, mean of 3 animals",5.14 ng/mL
same,Concentration (blood),"[4]; IP 2.5 mg/kg, 0.25 hr, individual animals, 2.5 mg/kg",350 ng/mL and 551 ng/mL
same,Concentration (blood),[4]; [6],328 ng/mL and 431 ng/mL
same,Concentration (blood),"[4]; IP 2.5 mg/kg, 1 hr, individual animals, 2.5 mg/kg",118 ng/mL and 217 ng/mL and 99.3 ng/mL
same,Concentration (blood),"[4]; IP 2.5 mg/kg, 2 hr, individual animals, 2.5 mg/kg",22.7 ng/mL and 63.7 ng/mL and 22.0 ng/mL
same,Concentration (blood),"[4]; IP 2.5 mg/kg, 4 hr, individual animals, 2.5 mg/kg",3.63 ng/mL and 8.64 ng/mL and 3.15 ng/mL
same,Concentration (blood),"[4]; IP 2.5 mg/kg, 6 hr, individual animals","BLOQ (BLOQ = Below LOQ, LOQ = 2.0 ng/mL)"
same,Concentration (blood) Mean,"[4]; IP 2.5 mg/kg, 6 hr, mean of 3 animals","BLOQ (BLOQ = Below LOQ, LOQ = 2.0 ng/mL)"
same,Concentration (blood),"[4]; IP 2.5 mg/kg, 8 hr, individual animals","BLOQ (BLOQ = Below LOQ, LOQ = 2.0 ng/mL)"
same,Concentration (blood) Mean,"[4]; IP 2.5 mg/kg, 8 hr, mean of 3 animals","BLOQ (BLOQ = Below LOQ, LOQ = 2.0 ng/mL)"
same,Concentration (blood),[4]; [7],"BLOQ (BLOQ = Below LOQ, LOQ = 2.0 ng/mL)"
same,Concentration (blood) Mean,[4]; [8],"BLOQ (BLOQ = Below LOQ, LOQ = 2.0 ng/mL)"
same,blood concentration of the compound,"[4]; single IP injection 2.5 mg/kg, after 6 h",undetectable
same,cell viability,[5]; 5 µmol,106.6% and 109.2%
same,cell viability,[5]; 10 µmol,109.8% and 96.54%
same,cell viability,[5]; 20 µmol,95.56% and 93.46%
same,cell viability,[5]; 40 µmol,86.71% and 78.81%
same,cell viability,[5]; 80 µmol,24% and 23.36%
same,cell viability,[5]; 160 µmol,32.01% and 28.26%

# — EP4818330A1, “PHARMACEUTICAL PREPARATION FOR DIAGNOSING AND TREATING ALZHEIMER'S DISEASE” (Shanghai East Hospital Tongji University, priority 2023, dated 2025)
